In publication PMC3003753 (Journal of medicinal chemistry, 2010):
One block for each compound: values may come before it.

Tests used:
[1] = molecular target: CCR5 (Homo sapiens, UniProt P51681); experiment: cAMP assay, U87CD4CCR5 cells stimulated with CCL5; type: cell-based; details: 150 ng/mL CCL5
[2] = molecular target: T1, CXCR4 (Homo sapiens, UniProt P61073); experiment: cAMP assay; type: cell-based
[3] = molecular target: T1, CXCR4; experiment: Ca2+ flux induced by CXCR4/CXCL12 interaction; type: cell-based; details: Gq pathway; data not shown
[4] = system: Melanoma OMM2.3 cells; experiment: Uveal melanoma micrometastasis mouse model; type: in vivo; details: for Number of hepatic micrometastases: control around 90
[5] = system: CXCR4/CXCL12-mediated Matrigel invasion of MDA-MB-231 cells; experiment: Matrigel invasion assay, CXCL12 as chemoattractant; type: cell-based; details: 10 nM compound, 200 ng/mL CXCL12, 0.01 µM
[6] = Blood clearance and bioavailability of 26 in mice; details: mouse, in vivo
[7] = system: carrageenan-induced mouse paw inflammation; experiment: Carrageenan-induced paw edema model; type: in vivo; details: for Paw inflammation suppression compared with 4: 10 mg/kg i.p. versus 4 at 300 µg/kg; for Paw inflammation inhibition percentage: 10 mg/kg i.p. daily
[8] = system: MDA-MB-231 cells in Matrigel plugs; experiment: In vivo tumor angiogenesis assay; set-up: species or system mouse; details: 300 µg/kg daily s.c., 10 days, nude mice
[9] = system: bleomycin induced lung fibrosis; experiment: Bleomycin induced lung fibrosis model; type: in vivo, mouse; details: 300 µg/kg i.p. daily, day 20 after bleomycin
[10] = Further preclinical studies of compound 5; type: in vivo; details: data not shown

Sequence of CCR5 (P51681 whole entry): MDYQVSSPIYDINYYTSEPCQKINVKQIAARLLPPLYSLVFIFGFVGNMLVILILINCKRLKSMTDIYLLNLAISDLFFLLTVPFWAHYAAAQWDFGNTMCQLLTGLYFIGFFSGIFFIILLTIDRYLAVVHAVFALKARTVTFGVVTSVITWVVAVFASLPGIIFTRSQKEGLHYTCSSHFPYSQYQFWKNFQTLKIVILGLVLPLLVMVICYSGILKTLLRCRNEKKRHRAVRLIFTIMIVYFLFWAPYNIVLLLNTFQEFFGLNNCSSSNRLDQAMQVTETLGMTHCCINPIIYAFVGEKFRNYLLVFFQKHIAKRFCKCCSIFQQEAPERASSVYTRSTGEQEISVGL
T1 sequence (P61073 whole entry): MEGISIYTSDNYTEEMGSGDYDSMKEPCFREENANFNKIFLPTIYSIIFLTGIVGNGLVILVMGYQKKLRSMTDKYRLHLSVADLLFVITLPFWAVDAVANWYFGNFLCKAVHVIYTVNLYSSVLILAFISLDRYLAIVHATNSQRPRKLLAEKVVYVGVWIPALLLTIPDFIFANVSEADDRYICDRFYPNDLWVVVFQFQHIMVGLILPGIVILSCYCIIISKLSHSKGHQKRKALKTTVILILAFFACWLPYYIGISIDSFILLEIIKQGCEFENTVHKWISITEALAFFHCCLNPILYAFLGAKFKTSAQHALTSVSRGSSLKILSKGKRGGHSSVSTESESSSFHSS

Compound: Fc1cnc(Cl)nc1NCc1ccc(CNc2ccnc(NCCN3CCOCC3)n2)cc1 [Compound 26]
- IC50 [2]: ~1 nM
- Interrupting CXCL12/CXCR4-mediated cAMP modulation [2]: effective
- Number of hepatic micrometastases ([4]; 10 mg/kg i.p. daily): around 40
- Invasion Inhibition 10nM [5]: > 60%
- Oral bioavailability [6]: lack of oral bioavailability
- Block of Ca2+ flux induced by CXCR4/CXCL12 interaction [3]: do not block
- Effect on blocking CCL5 stimulating CCR5 (cAMP) [1]: no significant effect
- Paw inflammation suppression compared with 4 [7]: comparable to 4

Compound: Clc1cccc(NCc2ccc(CNc3ncccn3)cc2)n1 [Compound 10g, N-(4-((6-chloropyridin-2-ylamino)methyl)benzyl)pyrimidin-2-amine]
- Paw inflammation inhibition percentage ([7]; C57BL/6J mice): more than 50%
- Paw inflammation suppression compared with 4 [7]: comparable to 4

Compound: Fc1cccc(NCc2ccc(CNc3ncccn3)cc2)n1 [Compound 10e, N-(4-((6-fluoropyridin-2-ylamino)methyl)benzyl)pyrimidin-2-amine]
- Paw inflammation inhibition percentage ([7]; C57BL/6J mice): more than 50%
- Paw inflammation suppression compared with 4 [7]: comparable to 4

Compound: TN14003 [Compound 4]
- Decrease of hepatic micrometastases ([4]; 300 µg/kg i.p. daily, nude mice): about 50%
- Number of hepatic micrometastases ([4]; 300 µg/kg i.p. daily): around 40
- Angiogenesis inhibition (hemoglobin content of Matrigel plugs) [8]: about 70%
- Lung fibrosis inhibition [9]: 85%
- Paw inflammation suppression ([7]; 300 µg/kg i.p. daily, C57BL/6J mice): about 50%

Compound: c1ccc(NCc2ccc(CNc3ccccn3)cc2)nc1 [Compound 5, WZ811]
- Bioavailability [10]: poor bioavailability
- In vivo efficacy [10]: failed to exhibit any in vivo efficacy
- Effect on blocking CCL5 stimulating CCR5 (cAMP) [1]: no significant effect

Compound: CSc1nccc(NCc2ccc(CNc3ncc(F)cn3)cc2)n1 [Compound 21b, 5-fluoro-N-(4-((2-(methylthio)pyrimidin-4-ylamino)methyl)benzyl)pyrimidin-2-amine]
- Invasion Inhibition 10nM [5]: 62%
- Paw inflammation suppression compared with 4 [7]: comparable to 4

The remaining lines, values ahead:

- Effect on blocking CCL5 stimulating CCR5 (cAMP) [1]: no significant effect
Compound: CCOCCN1CCN(C(=O)c2cnc(NCc3ccc(CNc4ncc(F)cn4)cc3)nc2C(F)(F)F)CC1 [Compound 21c, (4-(2-ethoxyethyl)piperazin-1-yl)(2-(4-((5-fluoropyrimidin-2-ylamino)methyl)benzylamino)-4-(trifluoromethyl)pyrimidin-5-yl)methanone]

- Interrupting CXCL12/CXCR4-mediated cAMP modulation [2]: effective
- Block of Ca2+ flux induced by CXCR4/CXCL12 interaction [3]: do not block
Compound: Fc1cnc(NCc2ccc(CNc3nccc(C(F)(F)F)n3)cc2)nc1 [Compound 21a, N-(4-((5-fluoropyrimidin-2-ylamino)methyl)benzyl)-4-(trifluoromethyl)pyrimidin-2-amine]
